One assay deals with HIF-1a. Nature of the assay: Western blot model: HIF1-a stabilization in Hep3b cells under hypoxia. The following applies: hypoxia 1% O2, 6 hours; for Western Blot (range of decrease of HIF1-a stabilization): class symbol. It counts as cell-based. Put shortly: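 Hep3B cells were exposed to compound under hypoxia (1% O2, 37 °C, 5% CO2) for 6 hours. HIF-1a was detected by western blot of 25 μg lysate protein with β-actin as loading control and ECL read-out. Activity is given as a percentage range relative to control.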
(In general: Immunoblotting shows a protein as a band on a membrane.)

Assay [1] has as its system mitochondrial ATP production on non-small cell lung carcinoma cell lines NCI-H460. The assay can be described thus: Mitochondrial ATP analysis (Cell Titer Glo) in NCI-H460 cells. The class given is cell-based. The following applies: 1-hour incubation, with sodium iodoacetate (100 μM), concentration inhibiting 50% of mitochondrial ATP production, read-out: IC50 (mito ATP). Put shortly: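 NCI-H460 cells (1,000/well) treated 24 h after plating for 1 h with compound dose series alone or with 100 μM sodium iodoacetate; oligomycin A (10 μg/ml) and FCCP (30 μM) as controls; Cell Titer Glo luminescence. Mitochondrial ATP = ATP under iodoacetate minus ATP under iodoacetate+oligomycin; IC50 (M).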

Usually pIC50 stands for the IC50 on a negative log10 scale, so that one unit is a factor of ten.

The structures appear in SMILES notation. pIC50: −log10 of the molar value. Where two headings read alike, the source gives them in different places.

On to `COc1ccc(C(O)C(C)(C)Oc2ccc(-c3coc(-c4ccc(OC(C)(C)C(O)c5ccc(OC)c(OC)c5)cc4)n3)cc2)cc1OC` (single isomer, unassigned) [Compound I-19, 1-(3,4-dimethoxyphenyl)-2-[4-[2-[4-[2-(3,4-dimethoxyphenyl)-2-hydroxy-1,1-dimethyl-ethoxy]phenyl]oxazol-4-yl]phenoxy]-2-methyl-propan-1-ol], for which, in the assay with HIF-1a, the “Western Blot (decrease of HIF1-a stabilization, percentage relative to control)” value is given as 56% and the “Western Blot (range of decrease of HIF1-a stabilization)” value was “** (** represents a decrease of HIF-a stabilization between 50 to 70%)”. In assay [1], the pIC50 is 6.61.

Take `COc1ccc(C(O)COc2ccc(-c3csc(-c4ccc(OCC(O)c5ccc(OC)c(OC)c5)cc4)c3)cc2)cc1OC` (stereo not drawn) [Compound I-35, 1-(3,4-dimethoxyphenyl)-2-[4-[5-[4-[2-(3,4-dimethoxyphenyl)-2-hydroxy-ethoxy]phenyl]-3-thienyl]phenoxy]ethanol]: in the assay on HIF-1a, the “Western Blot (decrease of HIF1-a stabilization, percentage relative to control)” value turned out to be 68% and the “Western Blot (range of decrease of HIF1-a stabilization)” value is “** (** represents a decrease of HIF-a stabilization between 50 to 70%)”. Further, the pIC50 in assay [1] (Homo sapiens, NCI-H460, 1 h) was 6.52.

With `COc1ccc(C(O)C(C)Oc2ccc(-c3coc(-c4ccc(OC(C)C(O)c5ccc(OC)c(OC)c5)cc4)n3)cc2)cc1OC` (stereo not drawn) [Compound I-12, 1-(3,4-dimethoxyphenyl)-2-[4-[2-[4-[2-(3,4-dimethoxyphenyl)-2-hydroxy-1-methyl-ethoxy]phenyl]oxazol-4-yl]phenoxy]propan-1-ol], in the assay with HIF-1a, the “Western Blot (decrease of HIF1-a stabilization, percentage relative to control)” value is on record as 38% and the “Western Blot (range of decrease of HIF1-a stabilization)” value was “* (* represents a decrease of HIF-a stabilization between 30 to 50%)”. In addition, the pIC50 in assay [1] (Homo sapiens, NCI-H460, 1 h) was 6.89.

`COc1ccc(C(O)C(C)Oc2ccc(-c3csc(-c4ccc(OC(C)C(O)c5ccc(OC)c(OC)c5)cc4)n3)cc2)cc1OC` (single isomer, unassigned) [Compound I-29, 1-(3,4-dimethoxyphenyl)-2-[4-[2-[4-[2-(3,4-dimethoxyphenyl)-2-hydroxy-1-methyl-ethoxy]phenyl]thiazol-4-yl]phenoxy]propan-1-ol]: in the assay on HIF-1a, the “Western Blot (decrease of HIF1-a stabilization, percentage relative to control)” value is 67% and the “Western Blot (range of decrease of HIF1-a stabilization)” value is listed as “** (** represents a decrease of HIF-a stabilization between 50 to 70%)”. In assay [1], the pIC50 was 6.80.

For the compound `COc1ccc(C(O)C(C)Oc2ccc(-c3csc(-c4ccc(OC(C)C(O)c5ccc(OC)c(OC)c5)cc4)n3)cc2)cc1OC` (single isomer, unassigned) [Compound I-31, 1-(3,4-dimethoxyphenyl)-2-[4-[2-[4-[2-(3,4-dimethoxyphenyl)-2-hydroxy-1-methyl-ethoxy]phenyl]thiazol-4-yl]phenoxy]propan-1-ol], in the assay with HIF-1a, the “Western Blot (decrease of HIF1-a stabilization, percentage relative to control)” value is listed as 64% and the “Western Blot (range of decrease of HIF1-a stabilization)” value was “** (** represents a decrease of HIF-a stabilization between 50 to 70%)”. Further, the pIC50 in assay [1] was 6.52.

`COc1ccc(C(O)COc2ccc(-c3nc(-c4ccc(OCC(O)c5ccc(OC)c(OC)c5)cc4)c(C)s3)cc2)cc1OC` (stereo not drawn) [Compound I-7, 1-(3,4-dimethoxyphenyl)-2-[4-[2-[4-[2-(3,4-dimethoxyphenyl)-2-hydroxy-ethoxy]phenyl]-5-methyl-thiazol-4-yl]phenoxy]ethanol]: in the assay on HIF-1a, the “Western Blot (decrease of HIF1-a stabilization, percentage relative to control)” value was determined as 63% and the “Western Blot (range of decrease of HIF1-a stabilization)” value was “** (** represents a decrease of HIF-a stabilization between 50 to 70%)”. Further, the pIC50 in assay [1] (Homo sapiens, NCI-H460, 1 h) is 6.55.

In the case of `COc1ccc(C(O)C(C)(C)Oc2ccc(-c3csc(-c4ccc(OC(C)(C)C(O)c5ccc(OC)c(OC)c5)cc4)c3)cc2)cc1OC` (stereo not drawn) [Compound I-34, 1-(3,4-dimethoxyphenyl)-2-[4-[5-[4-[2-(3,4-dimethoxyphenyl)-2-hydroxy-1,1-dimethyl-ethoxy]phenyl]-3-thienyl]phenoxy]-2-methyl-propan-1-ol], in the assay on HIF-1a, the “Western Blot (decrease of HIF1-a stabilization, percentage relative to control)” value was determined as 64% and the “Western Blot (range of decrease of HIF1-a stabilization)” value is listed as “** (** represents a decrease of HIF-a stabilization between 50 to 70%)”. Also, the pIC50 in assay [1] (Homo sapiens, NCI-H460, 1 h) is 8.22.

As to `COc1ccc(C(O)C(C)Oc2ccc(-c3nsc(-c4ccc(OC(C)C(O)c5ccc(OC)c(OC)c5)cc4)n3)cc2)cc1OC` (stereo not drawn) [Compound I-39, 1-(3,4-dimethoxyphenyl)-2-[4-[5-[4-[2-(3,4-dimethoxyphenyl)-2-hydroxy-1-methyl-ethoxy]phenyl]-1,2,4-thiadiazol-3-yl]phenoxy]propan-1-ol], in the assay on HIF-1a, the “Western Blot (decrease of HIF1-a stabilization, percentage relative to control)” value came to 51% and the “Western Blot (range of decrease of HIF1-a stabilization)” value is “** (** represents a decrease of HIF-a stabilization between 50 to 70%)”. The pIC50 in assay [1] (Homo sapiens, NCI-H460, 1 h) is 7.03.

As for `COc1ccc(C(O)C(C)Oc2ccc(-c3csc(-c4ccc(OC(C)C(O)c5ccc(OC)c(OC)c5)cc4)n3)cc2)cc1OC` (single isomer, unassigned) [Compound I-30, 1-(3,4-dimethoxyphenyl)-2-[4-[2-[4-[2-(3,4-dimethoxyphenyl)-2-hydroxy-1-methyl-ethoxy]phenyl]thiazol-4-yl]phenoxy]propan-1-ol], in the assay on HIF-1a, the “Western Blot (decrease of HIF1-a stabilization, percentage relative to control)” value is on record as 56% and the “Western Blot (range of decrease of HIF1-a stabilization)” value is recorded as “** (** represents a decrease of HIF-a stabilization between 50 to 70%)”. Moreover, in assay [1], the pIC50 is 6.78.

Consider `COc1ccc(C(O)COc2ccc(-c3csc(-c4ccc(OC(C)(C)C(O)c5ccc(OC)c(OC)c5)cc4)n3)cc2)cc1OC` (stereo not drawn) [Compound I-63, 1-(3,4-dimethoxyphenyl)-2-[4-[4-[4-[2-(3,4-dimethoxyphenyl)-2-hydroxy-ethoxy]phenyl]thiazol-2-yl]phenoxy]-2-methyl-propan-1-ol], for which, in the assay on HIF-1a, the “Western Blot (decrease of HIF1-a stabilization, percentage relative to control)” value is given as 64% and the “Western Blot (range of decrease of HIF1-a stabilization)” value is “** (** represents a decrease of HIF-a stabilization between 50 to 70%)”. The pIC50 in assay [1] (Homo sapiens, NCI-H460, 1 h) is 7.37.

For the compound `COc1ccc(C(O)C(C)(C)Oc2ccc(-c3nc(-c4ccc(OC(C)(C)C(O)c5ccc(OC)c(OC)c5)cc4)c(C)o3)cc2)cc1OC` (single isomer, unassigned) [Compound I-3, 1-(3,4-dimethoxyphenyl)-2-[4-[2-[4-[2-(3,4-dimethoxyphenyl)-2-hydroxy-1,1-dimethyl-ethoxy]phenyl]-5-methyl-oxazol-4-yl]phenoxy]-2-methyl-propan-1-ol], in the assay with HIF-1a, the “Western Blot (decrease of HIF1-a stabilization, percentage relative to control)” value is given as 70% and the “Western Blot (range of decrease of HIF1-a stabilization)” value is on record as “*** (*** represents a decrease of HIF-a stabilization higher than 70%)”. Besides, in assay [1] (Homo sapiens, NCI-H460, 1 h), the negative-log IC50 (pIC50) is 8.05.

For `COc1ccc(C(O)C(C)(C)Oc2ccc(-c3nc(-c4ccc(OC(C)(C)C(O)c5ccc(OC)c(OC)c5)cc4)c(C)o3)cc2)cc1OC` (single isomer, unassigned) [Compound I-4, 1-(3,4-dimethoxyphenyl)-2-[4-[2-[4-[2-(3,4-dimethoxyphenyl)-2-hydroxy-1,1-dimethyl-ethoxy]phenyl]-5-methyl-oxazol-4-yl]phenoxy]-2-methyl-propan-1-ol], in the assay on HIF-1a, the “Western Blot (decrease of HIF1-a stabilization, percentage relative to control)” value is given as 72% and the “Western Blot (range of decrease of HIF1-a stabilization)” value was “*** (*** represents a decrease of HIF-a stabilization higher than 70%)”. In addition, in assay [1], the pIC50 is 7.92.

As to `COc1ccc(C(O)C(C)(C)Oc2ccc(-c3c[nH]c(-c4ccc(OC(C)(C)C(O)c5ccc(OC)c(OC)c5)cc4)n3)cc2)cc1OC` (single isomer, unassigned) [Compound I-55, 1-(3,4-dimethoxyphenyl)-2-[4-[2-[4-[2-(3,4-dimethoxyphenyl)-2-hydroxy-1,1-dimethyl-ethoxy]phenyl]-1H-imidazol-4-yl]phenoxy]-2-methyl-propan-1-ol], in the assay on HIF-1a, the “Western Blot (decrease of HIF1-a stabilization, percentage relative to control)” value was 62% and the “Western Blot (range of decrease of HIF1-a stabilization)” value is on record as “** (** represents a decrease of HIF-a stabilization between 50 to 70%)”. In addition, the pIC50 in assay [1] (Homo sapiens, NCI-H460, 1 h) is 6.36.

For the compound `COc1ccc(C(O)COc2ccc(-c3noc(-c4ccc(OCC(O)c5ccc(OC)c(OC)c5)cc4)n3)cc2)cc1OC` (single isomer, unassigned) [Compound I-48, 1-(3,4-dimethoxyphenyl)-2-[4-[5-[4-[2-(3,4-dimethoxyphenyl)-2-hydroxy-ethoxy]phenyl]-1,2,4-oxadiazol-3-yl]phenoxy]ethanol], in the assay with HIF-1a, the “Western Blot (decrease of HIF1-a stabilization, percentage relative to control)” value is listed as 87% and the “Western Blot (range of decrease of HIF1-a stabilization)” value is “*** (*** represents a decrease of HIF-a stabilization higher than 70%)”. In addition, the pIC50 in assay [1] was under 5.00.

In the case of `COc1ccc(C(O)COc2ccc(-c3noc(-c4ccc(OCC(O)c5ccc(OC)c(OC)c5)cc4)n3)cc2)cc1OC` (stereo not drawn) [Compound I-36, 1-(3,4-dimethoxyphenyl)-2-[4-[5-[4-[2-(3,4-dimethoxyphenyl)-2-hydroxy-ethoxy]phenyl]-1,2,4-oxadiazol-3-yl]phenoxy]ethanol], in the assay on HIF-1a, the “Western Blot (decrease of HIF1-a stabilization, percentage relative to control)” value came out at 62% and the “Western Blot (range of decrease of HIF1-a stabilization)” value was “** (** represents a decrease of HIF-a stabilization between 50 to 70%)”. The pIC50 in assay [1] (Homo sapiens, NCI-H460, 1 h) was 6.17.

As for `COc1ccc(C(O)COc2ccc(-c3nc(-c4ccc(OCC(O)c5ccc(OC)c(OC)c5)cc4)c(C)s3)cc2)cc1OC` (single isomer, unassigned) [Compound I-11, 1-(3,4-dimethoxyphenyl)-2-[4-[2-[4-[2-(3,4-dimethoxyphenyl)-2-hydroxy-ethoxy]phenyl]-5-methyl-thiazol-4-yl]phenoxy]ethanol], in the assay on HIF-1a, the “Western Blot (decrease of HIF1-a stabilization, percentage relative to control)” value came out at 65% and the “Western Blot (range of decrease of HIF1-a stabilization)” value was “** (** represents a decrease of HIF-a stabilization between 50 to 70%)”. Besides, the pIC50 in assay [1] was 6.25.

Values taken from US20170313674A1, “BENZYLHYDROXIDE DERIVATIVES, PREPARATION THEREOF AND THERAPEUTIC USE THEREOF” (SANOFI, priority 2014, published 2017).
